“Also recorded” adds a separate entry of the source. Read-outs that look alike come from different tables or passages of the source. *1 amine or outer side, *2 acyl side, *3 side chain or, on linkers, in order; H or OH if unused. Where a SMILES comes first, the peptide text is derived from it. The star is where a group is joined. AMC = Cc1cc(=O)oc2cc(N*)ccc12; Suc = O=C(CCC(=O)[*:2])[*:1]; Boc = CC(C)(C)OC(=O)*; CO = O=C([*:1])[*:2]
Columns and labels:
[1] = biological target: T1, trypsin-like enzyme (Homo sapiens, UniProt O60235); assay: Substrate specificity, synthetic MCA substrates (assay method of trypsin activity); assay type: biochemical; details: pH 8.6, 0.1M Tris-HCl; activity on Boc-Phe-Ser-Arg-MCA taken to be 100%
T1 construct: from tissue; host or cells: cough phlegm (sputum) of patients with chronic disease of the respiratory tract
T1 sequence (O60235 187-418): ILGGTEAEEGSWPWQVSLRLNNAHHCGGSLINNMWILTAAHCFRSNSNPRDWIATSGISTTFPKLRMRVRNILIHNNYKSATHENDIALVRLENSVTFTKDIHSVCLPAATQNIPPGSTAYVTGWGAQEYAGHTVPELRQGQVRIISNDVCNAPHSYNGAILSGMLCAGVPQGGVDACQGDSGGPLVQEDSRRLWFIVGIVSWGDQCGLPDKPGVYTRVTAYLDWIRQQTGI

[2] = biological target: T2, human neutrophile elastase (Homo sapiens, UniProt P08246); assay: Substrate specificity, synthetic MCA substrates; assay type: biochemical
T2 sequence (P08246 30-267): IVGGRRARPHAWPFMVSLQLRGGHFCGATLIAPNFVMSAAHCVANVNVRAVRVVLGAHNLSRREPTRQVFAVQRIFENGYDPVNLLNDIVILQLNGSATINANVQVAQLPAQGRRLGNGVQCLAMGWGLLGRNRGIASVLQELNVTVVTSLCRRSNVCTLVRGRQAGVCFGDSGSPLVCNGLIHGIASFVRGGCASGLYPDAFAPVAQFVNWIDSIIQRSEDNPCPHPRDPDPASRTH

[3] = test system: rat mast cell-derived tryptase; assay: Substrate specificity, synthetic MCA substrates; assay type: biochemical; details: activity on Suc-Phe-Ser-Arg-MCA taken to be 100%
[4] = biological target: rat mast cell-derived tryptase (rat) (UniProt P27435)
[5] = biological target: trypsin-like enzyme isolated from cough phlegm of a patient suffering from a chronic respiratory apparatus disease (human)
[6] = biological target: T1, trypsin-like enzyme; assay: Effect of protease inhibitors on enzymatic activity; assay type: biochemical; details: for inhibition at 10 µM: read-out: Inhibition (%) Trypsin-like protease (human)
[7] = biological target: T3, human-derived neutrophile elastase (Homo sapiens, UniProt P08246); assay: as above; assay type: biochemical; details: for inhibition at 10 µM: read-out: Inhibition (%) Neutrophile elastase (human)
T3 sequence (P08246 30-267): T2 sequence (P08246 30-267)

[8] = test system: rat mast cell-derived tryptase; assay: as above; assay type: biochemical
[9] = biological target: Boc-Gln-Ala-Arg-MCA
[10] = biological target: Boc-Gln-Gly-Arg-MCA
[11] = biological target: Boc-Ile-Gln-Gly-Arg-MCA
[12] = biological target: Boc-Phe-Ser-Arg-MCA
[13] = biological target: Boc-Val-Leu-Lys-MCA
[14] = biological target: Boc-Val-Pro-Arg-MCA
[15] = biological target: Suc-Ala-Ala-Pro-Phe-MCA
[16] = biological target: Suc-Ala-Pro-Ala-MCA
[17] = biological target: Suc-Gly-Pro-Leu-Gly-Pro-MCA
[18] = biological target: T1, trypsin-like enzyme; assay: Digestion of natural substrates detected by SDS-polyacrylamide gel electrophoresis; assay type: biochemical
[19] = pH 8.6, activity on Suc-Ala-Pro-Ala-MCA taken to be 100%
[20] = Example 5: inhibitors 10 μM, PMSF 1 mM

trypsin-like enzyme isolated from cough phlegm of a patient suffering from a chronic respiratory apparatus disease, sequence (O60235 187-418 limits assumed): as the sequence (O60235 187-418) above

Cc1cc(=O)oc2cc(NC(=O)[C@@H](N)CC(C)C)ccc12 [Leu-MCA]
Substrate digestion ratio (%) Trypsin-like enzyme pH 8.6 [1]: 0%
Substrate digestion ratio (%) Neutrophile elastase pH 8.6 [2, 19]: 0.2%

Cc1cc(=O)oc2cc(NC(=O)[C@H](CCCCN)NC(=O)[C@H](CC(C)C)NC(=O)[C@@H](NC(=O)OC(C)(C)C)C(C)C)ccc12 [Boc-Val-Leu-Lys-MCA] (Boc-Val-Leu-Lys-{AMC})
Substrate digestion ratio (%) Trypsin-like enzyme pH 8.6 [1]: 3.9%
Substrate digestion ratio (%) Neutrophile elastase pH 8.6 [2, 19]: 0.1%
Substrate digestion ratio (%) Rat mast cell Tryptase pH 8.6 [3]: 6.1%

α1-antitrypsin
Inhibition (%) [4]: 66.3%
Inhibition (%) [5]: 23.5%

Cc1cc(=O)oc2cc(NC(=O)[C@H](CCCNC(=N)N)NC(=O)[C@@H]3CCCN3C(=O)[C@@H](NC(=O)OC(C)(C)C)C(C)C)ccc12 [Boc-Val-Pro-Arg-MCA] (Boc-Val-Pro-Arg-{AMC})
Substrate digestion ratio (%) Trypsin-like enzyme pH 8.6 [1]: 74.6%
Substrate digestion ratio (%) Neutrophile elastase pH 8.6 [2, 19]: 0.2%
Substrate digestion ratio (%) Rat mast cell Tryptase pH 8.6 [3]: 50.6%

CC(C)[C@H](NC(=O)[C@H](CCCNC(=N)N)NC(=O)N[C@@H](Cc1ccccc1)C(=O)O)C(=O)N[C@H](C=O)CCCNC(=N)N [Antipain, antipain] ({Phe-CO}-Arg-Val-Arg-aldehyde)
Inhibition of trypsin-like enzyme (in words) [6]: inhibited
inhibition at 10 µM [6]: 78.1%
inhibition at 10 µM [7]: 11.1%
Inhibition (%) Tryptase (derived from rat mast cell) ([8]; 10 µM): 98.2%

human neutrophile elastase (from UniProt P08246) (enzyme)
Substrate digestion ratio (%) [9]: 0.3%
Substrate digestion ratio (%) [10]: 0.2%
Substrate digestion ratio (%) [11]: 0.3%
Substrate digestion ratio (%) [12]: 0.4%
Substrate digestion ratio (%) [13]: 0.1%
Substrate digestion ratio (%) [14]: 0.2%
Substrate digestion ratio (%) [15]: 0.1%
Substrate digestion ratio (%) [16]: 100%
Substrate digestion ratio (%) [17]: 0%

CC[C@H](C)[C@H](NC(=O)OC(C)(C)C)C(=O)N[C@@H](CCC(N)=O)C(=O)NCC(=O)N[C@@H](CCCNC(=N)N)C(=O)Nc1ccc2c(C)cc(=O)oc2c1 [Boc-Ile-Gln-Gly-Arg-MCA] (Boc-IQGR-{AMC})
Substrate digestion ratio (%) Trypsin-like enzyme pH 8.6 [1]: 13.1%
Substrate digestion ratio (%) Neutrophile elastase pH 8.6 [2, 19]: 0.3%
Substrate digestion ratio (%) Rat mast cell Tryptase pH 8.6 [3]: 149.0%

fibrinogen
Digestion of natural substrate by trypsin-like enzyme [18]: specifically digested; also recorded: digests

trypsin-like enzyme isolated from cough phlegm of a patient suffering from a chronic respiratory apparatus disease
Substrate digestion ratio (%) [9]: 52.2%
Substrate digestion ratio (%) [10]: 13.8%
Substrate digestion ratio (%) [11]: 13.1%
Substrate digestion ratio (%) [12]: 100%
Substrate digestion ratio (%) [13]: 3.9%
Substrate digestion ratio (%) [14]: 74.6%
Substrate digestion ratio (%) [15]: 0%
Substrate digestion ratio (%) [16]: 0%
Substrate digestion ratio (%) [17]: 0%

CC(C)C[C@H](NC(=O)[C@@H](O)[C@H](N)Cc1ccccc1)C(=O)O [Bestatin, bestatin]
Inhibition of trypsin-like enzyme (in words) [6, 20]: not inhibited
inhibition at 10 µM ([6]; inhibitor 10 μM): 0%
inhibition at 10 µM ([7]; inhibitor 10 μM): 15.2%
Inhibition (%) Tryptase (derived from rat mast cell) ([8]; inhibitor 10 μM): 23.4%

elastinol
Inhibition of trypsin-like enzyme (in words) [6, 20]: not inhibited
Inhibition (%) Trypsin-like protease (human) ([6]; inhibitor 10 μM): 0%
Inhibition (%) Neutrophile elastase (human) ([7]; inhibitor 10 μM): 0%
Inhibition (%) Tryptase (derived from rat mast cell) ([8]; inhibitor 10 μM): 53.0%

CC(C)C[C@@H](N)[C@H](O)C(=O)N[C@H](C(=O)N[C@H](C(=O)N[C@@H](CC(=O)O)C(=O)O)C(C)C)C(C)C [Amastatin, amastatin]
Inhibition of trypsin-like enzyme (in words) [6, 20]: not inhibited
inhibition at 10 µM ([6]; inhibitor 10 μM): 0%
inhibition at 10 µM ([7]; inhibitor 10 μM): 67.6%
Inhibition (%) Tryptase (derived from rat mast cell) ([8]; inhibitor 10 μM): 6.6%

O=S(=O)(F)Cc1ccccc1 [PMSF, phenylmethylsulfonyl fluoride]
Inhibition of trypsin-like enzyme (in words) [6]: inhibited
Inhibition (%) Trypsin-like protease (human) ([6]; 1000 µM): 100%
Inhibition (%) Neutrophile elastase (human) ([7]; 1000 µM): 93.6%

Cc1cc(=O)oc2cc(NC(=O)[C@H](CCCNC(=N)N)NC(=O)CNC(=O)[C@H](CCC(N)=O)NC(=O)OC(C)(C)C)ccc12 [Boc-Gln-Gly-Arg-MCA] (Boc-Gln-Gly-Arg-{AMC})
Substrate digestion ratio (%) Trypsin-like enzyme pH 8.6 [1]: 13.8%
Substrate digestion ratio (%) Neutrophile elastase pH 8.6 [2, 19]: 0.2%
Substrate digestion ratio (%) Rat mast cell Tryptase pH 8.6 [3]: 4.6%

rat mast cell-derived tryptase (from UniProt P27435) (enzyme)
Substrate digestion ratio (%) [10]: 4.6%
Substrate digestion ratio (%) [11]: 149%
Substrate digestion ratio (%) [12]: 100%
Substrate digestion ratio (%) [13]: 6.1%
Substrate digestion ratio (%) [14]: 50.6%
Substrate digestion ratio (%) [15]: 2%

CC(=O)N[C@@H](CC(C)C)C(=O)N[C@@H](CC(C)C)C(=O)N[C@H](C=O)CCCNC(=N)N [Leupeptin, leupeptin]
Inhibition of trypsin-like enzyme (in words) [6]: inhibited
inhibition at 10 µM [6]: 82.5%
inhibition at 10 µM [7]: 0%
Inhibition (%) Tryptase (derived from rat mast cell) ([8]; 10 µM): 100%

α-1-antitrypsin: a blood protease inhibitor; also used as natural substrate
Digestion of natural substrate by trypsin-like enzyme [18]: does not digest
Digestion of natural substrate by trypsin-like enzyme ([18]; listed as al-antitrypsin): not digested
Inhibition of trypsin-like enzyme (in words) [6, 20]: inhibited
Inhibition (%) Trypsin-like protease (human) ([6]; inhibitor 10 μM): 23.5%
Inhibition (%) Tryptase (derived from rat mast cell) ([8]; 10 µM): 66.3%

Cc1cc(=O)oc2cc(NC(=O)[C@H](CCCNC(=N)N)NC(=O)[C@H](C)NC(=O)[C@H](CCC(N)=O)NC(=O)OC(C)(C)C)ccc12 [Boc-Gln-Ala-Arg-MCA] (Boc-Gln-Ala-Arg-{AMC})
Substrate digestion ratio (%) Trypsin-like enzyme pH 8.6 [1]: 52.2%
Substrate digestion ratio (%) Neutrophile elastase pH 8.6 [2, 19]: 0.3%

Cc1cc(=O)oc2cc(NC(=O)[C@H](CCCNC(=N)N)NC(=O)[C@H](CO)NC(=O)[C@H](Cc3ccccc3)NC(=O)OC(C)(C)C)ccc12 [Boc-Phe-Ser-Arg-MCA] (Boc-Phe-Ser-Arg-{AMC})
Substrate digestion ratio (%) Trypsin-like enzyme pH 8.6 [1]: 100%
Substrate digestion ratio (%) Neutrophile elastase pH 8.6 [2, 19]: 0.4%
Substrate digestion ratio (%) Rat mast cell Tryptase pH 8.6 [3]: 100%

vasoactive intestinal peptide [VIP]
Digestion of natural substrate by trypsin-like enzyme [18]: specifically digested; also recorded: digests

Cc1cc(=O)oc2cc(NC(=O)[C@H](C)NC(=O)[C@@H]3CCCN3C(=O)[C@H](C)NC(=O)CCC(=O)O)ccc12 [Suc-Ala-Pro-Ala-MCA] (Suc-Ala-Pro-Ala-{AMC})
Substrate digestion ratio (%) Trypsin-like enzyme pH 8.6 [1]: 0%
Substrate digestion ratio (%) Neutrophile elastase pH 8.6 [2, 19]: 100%

substance P
Digestion of natural substrate by trypsin-like enzyme [18]: not digested; also recorded: does not digest

Cc1cc(=O)oc2cc(NC(=O)[C@H](Cc3ccccc3)NC(=O)[C@@H]3CCCN3C(=O)[C@H](C)NC(=O)[C@H](C)NC(=O)CCC(=O)O)ccc12 [Suc-Ala-Ala-Pro-Phe-MCA] (Suc-AAPF-{AMC})
Substrate digestion ratio (%) Trypsin-like enzyme pH 8.6 [1]: 0%
Substrate digestion ratio (%) Neutrophile elastase pH 8.6 [2]: 0.1%
Substrate digestion ratio (%) Rat mast cell Tryptase pH 8.6 [3]: 2.0%

Cc1cc(=O)oc2cc(NC(=O)[C@@H]3CCCN3C(=O)CNC(=O)[C@H](CC(C)C)NC(=O)[C@@H]3CCCN3C(=O)CNC(=O)CCC(=O)O)ccc12 [Suc-Gly-Pro-Leu-Gly-Pro-MCA] (Suc-GPLGP-{AMC})
Substrate digestion ratio (%) Trypsin-like enzyme pH 8.6 [1]: 0%
Substrate digestion ratio (%) Neutrophile elastase pH 8.6 [2, 19]: 0%

From patent US5804410A, “Nucleic acid sequence encoding trypsin-like enzyme and process for producing the enzyme” (Teijin Limited, priority 1994, dated 1998)
